Experimental findings from publication PMC7457602 (bioRxiv, 2020) are described below.

This data set addresses SARS-CoV-2 3CLpro (Severe acute respiratory syndrome coronavirus 2, UniProt P0DTD1).

With `O=c1c2ccccc2[se]n1-c1ccccc1` [Ebselen], the “activity in the transfection-based assay (rescue of 3CLpro induced cytotoxicity)” value was “did not observe activity”.
